{"source": "paper PMC2806030", "about": "“Inhibition of mammalian S6 kinase by resveratrol suppresses autophagy” (Aging (Albany NY), 2009)", "assay_in_all_cases": "biochemical", "design_in_all_cases": "Upstate KinaseProfiler in vitro kinase activity assay, per cent of DMSO control", "settings_in_all_cases": "read-out: Activity (% of Control)", "key": {"[1]": {"target": "T1, PI 3-Kinaseγ(h) (Homo sapiens, UniProt P48736)", "T1 construct": "gene PIK3CG", "how_it_was_run": "(§1)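 Profiling done with Upstate KinaseProfiler service across 100 kinases, resveratrol tested at 20 μM; activity expressed relative to control.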"}, "[2]": {"target": "T2, CHK2(h) (Homo sapiens, UniProt O96017)", "T2 construct": "gene CHEK2", "how_it_was_run": "as §1"}, "[3]": {"target": "T3, IR(h) (Homo sapiens, UniProt P06213)", "T3 construct": "gene INSR", "how_it_was_run": "as §1"}, "[4]": {"target": "DAPK2(h) (Homo sapiens, UniProt Q9UIK4)", "how_it_was_run": "as §1"}, "[5]": {"target": "T4, Tie2(h) (Homo sapiens, UniProt Q02763)", "T4 construct": "gene TEK", "how_it_was_run": "as §1"}, "[6]": {"target": "T5, Abl(T315I)(h) (Homo sapiens, UniProt P00519, T315I)", "T5 construct": "gene ABL1", "how_it_was_run": "as §1"}, "[7]": {"target": "T6, IKKα(h) (Homo sapiens, UniProt O15111)", "T6 construct": "gene CHUK", "how_it_was_run": "as §1"}, "[8]": {"target": "Jak2 (Homo sapiens, UniProt O60674)", "how_it_was_run": "as §1"}, "[9]": {"target": "T7, LKB1(h) (Homo sapiens, UniProt Q15831)", "T7 construct": "gene STK11", "how_it_was_run": "as §1"}, "[10]": {"target": "T8, PKG1ß(h) (Homo sapiens, UniProt Q13976)", "T8 construct": "gene PRKG1; isoform beta", "how_it_was_run": "as §1"}, "[11]": {"target": "T9, TAK1(h) (Homo sapiens, UniProt O43318)", "T9 construct": "gene MAP3K7", "how_it_was_run": "as §1"}, "[12]": {"target": "CDK7/cyclinH/MAT1(h) (Homo sapiens, UniProt P50613)", "how_it_was_run": "as §1"}, "[13]": {"target": "T10, MSK2(h) (Homo sapiens, UniProt O75676)", "T10 construct": "gene RPS6KA4", "T10 sequence (O75676 whole entry)": "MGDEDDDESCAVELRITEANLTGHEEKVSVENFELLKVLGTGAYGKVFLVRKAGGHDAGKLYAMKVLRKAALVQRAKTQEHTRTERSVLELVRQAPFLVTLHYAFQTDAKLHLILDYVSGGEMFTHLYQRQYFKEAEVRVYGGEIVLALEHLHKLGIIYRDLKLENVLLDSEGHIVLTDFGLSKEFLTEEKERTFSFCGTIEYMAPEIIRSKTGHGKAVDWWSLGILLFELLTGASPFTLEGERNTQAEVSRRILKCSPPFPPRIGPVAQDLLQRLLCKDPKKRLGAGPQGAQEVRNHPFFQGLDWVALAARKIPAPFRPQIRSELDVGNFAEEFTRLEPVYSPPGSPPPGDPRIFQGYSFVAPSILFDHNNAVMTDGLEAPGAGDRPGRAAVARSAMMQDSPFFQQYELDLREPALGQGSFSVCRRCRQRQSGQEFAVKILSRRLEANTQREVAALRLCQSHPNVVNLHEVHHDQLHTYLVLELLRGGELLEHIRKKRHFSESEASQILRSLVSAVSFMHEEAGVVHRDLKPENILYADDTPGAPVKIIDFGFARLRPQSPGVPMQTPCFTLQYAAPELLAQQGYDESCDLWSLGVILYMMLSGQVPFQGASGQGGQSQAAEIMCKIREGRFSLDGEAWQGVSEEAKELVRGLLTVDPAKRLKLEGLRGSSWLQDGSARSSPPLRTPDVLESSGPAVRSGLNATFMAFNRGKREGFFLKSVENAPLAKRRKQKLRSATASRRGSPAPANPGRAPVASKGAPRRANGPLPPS", "how_it_was_run": "as §1"}, "[14]": {"target": "T11, PKD2(h) (Homo sapiens, UniProt Q9BZL6)", "T11 construct": "gene PRKD2", "how_it_was_run": "as §1"}, "[15]": {"target": "LIMK1(h) (Homo sapiens, UniProt P53667)", "sequence (P53667 whole entry)": "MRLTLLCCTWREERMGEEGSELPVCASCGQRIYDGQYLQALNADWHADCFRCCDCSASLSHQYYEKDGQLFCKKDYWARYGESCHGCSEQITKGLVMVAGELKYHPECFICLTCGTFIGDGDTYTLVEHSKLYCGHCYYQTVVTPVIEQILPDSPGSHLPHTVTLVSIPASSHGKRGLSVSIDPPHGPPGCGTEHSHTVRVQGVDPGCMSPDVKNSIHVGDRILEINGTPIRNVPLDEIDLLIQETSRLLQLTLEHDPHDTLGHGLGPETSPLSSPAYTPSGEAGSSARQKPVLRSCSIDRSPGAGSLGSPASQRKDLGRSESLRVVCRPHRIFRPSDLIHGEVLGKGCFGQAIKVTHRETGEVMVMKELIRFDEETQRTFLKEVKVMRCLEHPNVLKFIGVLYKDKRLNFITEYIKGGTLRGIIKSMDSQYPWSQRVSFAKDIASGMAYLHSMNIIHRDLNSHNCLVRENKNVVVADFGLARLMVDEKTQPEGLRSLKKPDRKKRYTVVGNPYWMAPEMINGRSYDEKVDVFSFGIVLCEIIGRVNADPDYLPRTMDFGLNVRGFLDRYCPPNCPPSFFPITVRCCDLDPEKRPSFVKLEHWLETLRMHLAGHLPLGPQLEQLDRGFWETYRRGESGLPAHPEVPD", "how_it_was_run": "as §1"}, "[16]": {"target": "T12, PI 3-Kinaseβ(h) (Homo sapiens, UniProt P42338)", "T12 construct": "gene PIK3CB", "T12 sequence (P42338 whole entry)": "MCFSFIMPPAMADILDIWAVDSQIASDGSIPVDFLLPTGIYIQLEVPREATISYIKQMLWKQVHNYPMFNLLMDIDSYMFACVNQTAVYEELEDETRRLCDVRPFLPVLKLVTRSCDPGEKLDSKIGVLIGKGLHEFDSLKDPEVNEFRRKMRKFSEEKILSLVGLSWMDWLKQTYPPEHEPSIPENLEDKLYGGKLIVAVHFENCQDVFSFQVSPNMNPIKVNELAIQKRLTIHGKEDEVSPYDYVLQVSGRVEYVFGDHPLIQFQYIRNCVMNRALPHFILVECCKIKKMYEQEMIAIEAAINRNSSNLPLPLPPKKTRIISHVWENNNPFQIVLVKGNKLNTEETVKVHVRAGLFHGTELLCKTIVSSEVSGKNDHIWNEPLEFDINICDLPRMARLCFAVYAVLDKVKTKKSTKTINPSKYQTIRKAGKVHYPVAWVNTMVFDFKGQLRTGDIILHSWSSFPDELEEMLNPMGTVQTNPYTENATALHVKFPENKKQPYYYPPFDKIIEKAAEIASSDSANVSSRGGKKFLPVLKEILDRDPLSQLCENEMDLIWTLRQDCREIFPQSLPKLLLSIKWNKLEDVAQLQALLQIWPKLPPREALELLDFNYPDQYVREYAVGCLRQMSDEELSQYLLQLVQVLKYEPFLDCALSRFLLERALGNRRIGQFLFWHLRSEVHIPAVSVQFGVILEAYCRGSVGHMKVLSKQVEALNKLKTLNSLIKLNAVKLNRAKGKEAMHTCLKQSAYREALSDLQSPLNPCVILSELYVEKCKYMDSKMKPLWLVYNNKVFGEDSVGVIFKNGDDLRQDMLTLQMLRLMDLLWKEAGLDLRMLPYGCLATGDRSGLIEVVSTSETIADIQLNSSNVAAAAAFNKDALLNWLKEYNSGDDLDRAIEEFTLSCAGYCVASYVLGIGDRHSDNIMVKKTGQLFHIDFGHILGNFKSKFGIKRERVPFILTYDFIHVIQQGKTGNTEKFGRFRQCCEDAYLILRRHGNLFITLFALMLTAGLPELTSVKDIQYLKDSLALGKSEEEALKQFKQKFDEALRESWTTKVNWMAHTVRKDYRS", "T12 sequence (P27986 whole entry partner)": "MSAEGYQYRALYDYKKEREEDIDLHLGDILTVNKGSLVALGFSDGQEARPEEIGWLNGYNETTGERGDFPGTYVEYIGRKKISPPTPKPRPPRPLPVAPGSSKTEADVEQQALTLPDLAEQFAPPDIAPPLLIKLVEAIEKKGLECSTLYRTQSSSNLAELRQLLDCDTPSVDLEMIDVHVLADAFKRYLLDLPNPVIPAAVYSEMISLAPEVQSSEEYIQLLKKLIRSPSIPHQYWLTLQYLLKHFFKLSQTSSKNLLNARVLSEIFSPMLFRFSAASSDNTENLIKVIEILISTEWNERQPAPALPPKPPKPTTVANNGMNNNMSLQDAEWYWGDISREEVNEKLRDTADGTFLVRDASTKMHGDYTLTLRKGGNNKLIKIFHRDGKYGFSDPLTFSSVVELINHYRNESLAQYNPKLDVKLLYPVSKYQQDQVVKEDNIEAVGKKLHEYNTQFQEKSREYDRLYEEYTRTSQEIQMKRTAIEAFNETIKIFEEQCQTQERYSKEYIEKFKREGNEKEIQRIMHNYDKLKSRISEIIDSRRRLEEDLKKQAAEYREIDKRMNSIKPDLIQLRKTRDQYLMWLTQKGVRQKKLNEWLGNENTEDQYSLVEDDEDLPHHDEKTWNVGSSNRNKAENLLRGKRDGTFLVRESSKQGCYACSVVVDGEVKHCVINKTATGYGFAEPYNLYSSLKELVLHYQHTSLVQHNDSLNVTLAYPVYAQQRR", "how_it_was_run": "as §1"}, "[17]": {"target": "EGFR(h) (Homo sapiens, UniProt P00533)", "sequence (P00533 whole entry)": "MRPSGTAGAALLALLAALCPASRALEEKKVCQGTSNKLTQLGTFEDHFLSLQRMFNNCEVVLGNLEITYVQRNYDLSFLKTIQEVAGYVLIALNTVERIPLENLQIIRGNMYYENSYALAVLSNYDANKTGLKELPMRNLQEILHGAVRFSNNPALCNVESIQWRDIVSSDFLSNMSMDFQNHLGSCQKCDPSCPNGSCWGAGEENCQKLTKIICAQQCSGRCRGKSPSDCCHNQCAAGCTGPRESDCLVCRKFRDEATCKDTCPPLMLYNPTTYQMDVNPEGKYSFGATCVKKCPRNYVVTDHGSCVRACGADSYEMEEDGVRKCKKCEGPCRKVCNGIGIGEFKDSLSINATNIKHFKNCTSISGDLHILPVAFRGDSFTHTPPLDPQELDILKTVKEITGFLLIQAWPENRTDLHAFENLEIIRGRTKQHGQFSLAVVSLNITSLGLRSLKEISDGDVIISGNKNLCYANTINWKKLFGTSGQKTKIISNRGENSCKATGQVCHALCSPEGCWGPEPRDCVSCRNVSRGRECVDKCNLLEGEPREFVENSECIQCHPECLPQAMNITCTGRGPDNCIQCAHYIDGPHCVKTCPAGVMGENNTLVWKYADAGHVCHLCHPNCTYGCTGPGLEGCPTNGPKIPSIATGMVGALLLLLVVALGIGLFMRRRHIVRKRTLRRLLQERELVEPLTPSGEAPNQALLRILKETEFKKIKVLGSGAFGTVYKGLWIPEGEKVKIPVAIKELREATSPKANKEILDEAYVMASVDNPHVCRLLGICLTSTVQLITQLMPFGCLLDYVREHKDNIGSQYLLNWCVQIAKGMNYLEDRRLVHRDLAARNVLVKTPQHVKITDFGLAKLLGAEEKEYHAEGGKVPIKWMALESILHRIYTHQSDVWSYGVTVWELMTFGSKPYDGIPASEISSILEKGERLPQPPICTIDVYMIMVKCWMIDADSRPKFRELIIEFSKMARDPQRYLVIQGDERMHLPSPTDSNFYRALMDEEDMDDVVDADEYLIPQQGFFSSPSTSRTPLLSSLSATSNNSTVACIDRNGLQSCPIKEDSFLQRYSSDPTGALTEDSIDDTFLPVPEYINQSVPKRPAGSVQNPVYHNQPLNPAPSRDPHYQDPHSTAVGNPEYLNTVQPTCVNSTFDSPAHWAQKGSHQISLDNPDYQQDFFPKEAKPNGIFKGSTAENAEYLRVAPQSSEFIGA", "how_it_was_run": "as §1"}, "[18]": {"target": "T13, ALK4(h) (Homo sapiens, UniProt P36896)", "T13 construct": "gene ACVR1B", "T13 sequence (P36896 whole entry)": "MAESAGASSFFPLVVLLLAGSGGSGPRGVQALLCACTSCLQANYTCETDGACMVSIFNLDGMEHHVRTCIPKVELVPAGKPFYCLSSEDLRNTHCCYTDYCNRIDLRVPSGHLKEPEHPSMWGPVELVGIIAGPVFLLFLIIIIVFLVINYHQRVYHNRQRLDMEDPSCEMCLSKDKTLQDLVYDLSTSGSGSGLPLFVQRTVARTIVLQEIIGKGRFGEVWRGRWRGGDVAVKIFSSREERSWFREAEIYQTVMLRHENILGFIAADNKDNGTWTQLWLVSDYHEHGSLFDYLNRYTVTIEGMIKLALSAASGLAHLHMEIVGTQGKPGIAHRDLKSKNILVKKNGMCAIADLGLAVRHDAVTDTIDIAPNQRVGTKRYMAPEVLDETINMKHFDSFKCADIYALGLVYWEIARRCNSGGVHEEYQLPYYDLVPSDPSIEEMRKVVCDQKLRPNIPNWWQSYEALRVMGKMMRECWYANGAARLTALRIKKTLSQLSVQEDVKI", "how_it_was_run": "as §1"}}, "data": [{"smiles": "Oc1ccc(/C=C/c2cc(O)cc(O)c2)cc1", "note": "[Res, resveratrol]", "values": [{"measurement": "remaining activity at 20 µM", "setting": "[1]", "value": "101 ± 1", "unit": "%"}, {"measurement": "remaining activity at 20 µM", "setting": "[2]", "value": "59 ± 6", "unit": "%"}, {"measurement": "remaining activity at 20 µM", "setting": "[3]", "value": "71 ± 5", "unit": "%"}, {"measurement": "remaining activity at 20 µM", "setting": "[4]", "value": "67 ± 7", "unit": "%"}, {"measurement": "remaining activity at 20 µM", "setting": "[5]", "value": "94 ± 8", "unit": "%"}, {"measurement": "remaining activity at 20 µM", "setting": "[6]", "value": "100 ± 2", "unit": "%"}, {"measurement": "remaining activity at 20 µM", "setting": "[7]", "value": "40 ± 1", "unit": "%"}, {"measurement": "remaining activity at 20 µM", "setting": "[8]", "value": "27 ± 5", "unit": "%"}, {"measurement": "remaining activity at 20 µM", "setting": "[9]", "value": "102 ± 3", "unit": "%"}, {"measurement": "remaining activity at 20 µM", "setting": "[10]", "value": "56 ± 4", "unit": "%"}, {"measurement": "remaining activity at 20 µM", "setting": "[11]", "value": "105 ± 3", "unit": "%"}, {"measurement": "remaining activity at 20 µM", "setting": "[12]", "value": "95 ± 1", "unit": "%"}, {"measurement": "remaining activity at 20 µM", "setting": "[13]", "value": "60 ± 1", "unit": "%"}, {"measurement": "remaining activity at 20 µM", "setting": "[14]", "value": "88 ± 5", "unit": "%"}, {"measurement": "remaining activity at 20 µM", "setting": "[15]", "value": "84 ± 4", "unit": "%"}, {"measurement": "remaining activity at 20 µM", "setting": "[16]", "value": "107 ± 1", "unit": "%"}, {"measurement": "remaining activity at 20 µM", "setting": "[17]", "value": "90 ± 5", "unit": "%"}, {"measurement": "remaining activity at 20 µM", "setting": "[18]", "value": "110 ± 3", "unit": "%"}]}]}
